The target in experiment [1] is GDP-bound HRAS wild-type protein (Homo sapiens, UniProt P01112). Nature of the experiment: Binding to HRAS by surface plasmon resonance (SPR), Single Cycle Kinetics. The settings on record: SPR. For orientation: In SPR one partner is held on a chip, and binding of the other changes the refractive index at the surface.
The target in experiment [2] is GDP-bound NRAS wild-type protein (Homo sapiens, UniProt P01111). The experiment can be described thus: Binding to NRAS by surface plasmon resonance (SPR), Single Cycle Kinetics. The settings on record: SPR.
The mark [3] stands for this setting: KD ratio, GDP-bound HRAS wild-type vs GDP-bound KRAS wild-type.
The mark [4] stands for this setting: KD ratio, GDP-bound NRAS wild-type vs GDP-bound KRAS wild-type.

Data on 7 compounds can be found in patent publication US20250230193A1, “CYCLIC COMPOUND HAVING SELECTIVE KRAS INHIBITORY EFFECT ON HRAS AND NRAS” (CHUGAI SEIYAKU KABUSHIKI KAISHA, priority 2022, published 2025).

Where a SMILES comes first, the peptide text is derived from it. Bridges are numbered along the chain shown (N, C = ends). [ ]: non-standard residue; d: D form. The star is where a group is joined. hPhe(3-Cl-4-CF3) = N[C@@H](CCc1ccc(C(F)(F)F)c(Cl)c1)C(=O)O; NPrPhe(4-CF3) = CCCN[C@@H](Cc1ccc(C(F)(F)F)cc1)C(=O)O; NMeGly(cPent) = CN[C@H](C(=O)O)C1CCCC1; NMeD = CN[C@@H](CC(=O)O)C(=O)O; NMeL = CN[C@@H](CC(C)C)C(=O)O; Morpholide = C1CN(*)CCO1; NMeA = CN[C@@H](C)C(=O)O; Ac5c = NC1(C(=O)O)CCCC1; Aze = O=C(O)[C@@H]1CCN1; Ac3c = NC1(C(=O)O)CC1; Sar = CNCC(=O)O

Chain of GDP-bound NRAS wild-type protein (P01111 whole entry): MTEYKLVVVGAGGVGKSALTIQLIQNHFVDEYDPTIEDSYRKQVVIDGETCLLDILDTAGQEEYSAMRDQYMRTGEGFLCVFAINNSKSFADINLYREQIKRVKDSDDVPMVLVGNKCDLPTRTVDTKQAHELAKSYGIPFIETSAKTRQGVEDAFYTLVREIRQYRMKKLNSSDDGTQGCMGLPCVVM
Chain of GDP-bound HRAS wild-type protein (P01112 whole entry): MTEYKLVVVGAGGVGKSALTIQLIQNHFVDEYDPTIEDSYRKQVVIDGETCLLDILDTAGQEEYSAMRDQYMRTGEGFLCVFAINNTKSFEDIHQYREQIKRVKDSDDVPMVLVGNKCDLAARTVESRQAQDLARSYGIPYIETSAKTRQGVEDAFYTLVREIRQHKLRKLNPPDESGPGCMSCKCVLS

As for `CCCN1C(=O)[C@@H]2CCN2C(=O)[C@H](C)N(C)C(=O)[C@H]([C@@H](C)CC)NC(=O)[C@H](CC(C)C)N(C)C(=O)C[C@@H](C(=O)N2CCOCC2)N(C)C(=O)[C@H](C2CCCC2)N(C)C(=O)C2(CC2)NC(=O)[C@@H]2CCCN2C(=O)[C@H](CCc2ccc(C(F)(F)F)c(Cl)c2)NC(=O)CN(C)C(=O)[C@@H]1Cc1ccc(C(F)(F)F)cc1` [PP0224] ([NMeL]I[NMeA][Aze][NPrPhe(4-CF3)][Sar][hPhe(3-Cl-4-CF3)]P[Ac3c][NMeGly(cPent)][NMeD]-Morpholide; lactam N-11), in experiment [1] (KD ratio HRAS/KRAS), the “HRAS/KRAS (ratio of KD for GDP-bound HRAS wild-type to KD for KRAS)” value is “B (a compound having 3 or more and less than 10 is denoted as B)”. The “NRAS/KRAS (ratio of KD for GDP-bound NRAS wild-type to KD for KRAS)” value in experiment [2] (KD ratio NRAS/KRAS) is “C (A compound having a KD ratio of 0.1 or more and less than 3 is denoted as C)”.
On to `CCO[C@@H]1C[C@H]2C(=O)NC3(CC(F)(F)C3)C(=O)N(C)[C@@H](C3CCCC3)C(=O)N(C)[C@H](C(=O)N3CCOCC3)CC(=O)N(C)[C@@H](COC)C(=O)N[C@@H]([C@@H](C)CC)C(=O)N(C)CC(=O)N(C)[C@H]3CCCCCN(C3=O)[C@@H](Cc3ccc(C(F)(F)F)cc3)C(=O)N(C)CC(=O)N[C@@H](CCc3cc(F)c(C(F)(F)F)c(F)c3)C(=O)N2C1` [PP0843], for which the “HRAS/KRAS (ratio of KD value with respect to HRAS to KD value with respect to KRAS)” value in experiment [1] (setting [3]) is “B (a compound having 3 or more and less than 10 is denoted as B)”. In addition, the “NRAS/KRAS (ratio of KD value with respect to NRAS to KD value with respect to KRAS)” value in experiment [2] (setting [4]) was “B (a compound having 3 or more and less than 10 is denoted as B)”.
As to `CC[C@H](C)[C@@H]1NC(=O)[C@H](CC)N(C)C(=O)C[C@@H](C(=O)N(CC)CC)N(C)C(=O)[C@H](C2CCCC2)N(C)C(=O)C2(CC(C)(C)C2)NC(=O)[C@@H]2C[C@@H](C)CN2C(=O)[C@H](CCc2ccc(C(F)(F)F)c(OC)c2)NC(=O)CN(C)C(=O)[C@H](Cc2ccc(C)cc2)N2CC/C=C\C[C@@H](C2=O)N(C)C(=O)CN(C)C1=O` [PP1841], the “HRAS/KRAS (ratio of KD value for HRAS to KD value for KRAS)” value in experiment [1] (setting [3]) is “A (a compound having 10 or more and less than 20 is denoted as A)”. Also, the “NRAS/KRAS (ratio of KD value for NRAS to KD value for KRAS)” value in experiment [2] (setting [4]) is “AA (a compound having 20 or more is denoted as AA)”.
Take `CCC[C@H]1C(=O)N[C@@H]([C@@H](C)CC)C(=O)N2CCC[C@H]2C(=O)N(C)[C@H]2C/C=C\CCN(C2=O)[C@@H](CC2CCC(F)(F)CC2)C(=O)N(C)CC(=O)N[C@@H](CCc2ccc(C(F)(F)F)c(OC)c2)C(=O)N2C[C@H](OCC)C[C@H]2C(=O)N(C)C2(CCC2)C(=O)N(C)[C@@H](C2CCCC2)C(=O)N(C)[C@H](C(=O)N(C)C)CC(=O)N1C` [PP2356]: the “HRAS/KRAS (ratio of KD value with respect to HRAS to KD value with respect to KRAS)” value in experiment [1] (GDP-bound HRAS wild-type vs GDP-bound KRAS wild-type) was “A (a compound having 10 or more and less than 20 is denoted as A)”. In experiment [2] (GDP-bound NRAS wild-type vs GDP-bound KRAS wild-type), the “NRAS/KRAS (ratio of KD value with respect to NRAS to KD value with respect to KRAS)” value is “A (a compound having 10 or more and less than 20 is denoted as A)”.
Turning to `CC[C@H](C)[C@@H]1NC(=O)[C@H](CC(C)C)N(C)C(=O)C[C@@H](C(=O)N(C)C)N(C)C(=O)[C@H](C2CCCC2)N(C)C(=O)C2(CCCC2)NC(=O)[C@@H]2CCCN2C(=O)[C@H](CCc2cc(F)c(C(F)(F)F)c(F)c2)NC(=O)CN(C)C(=O)[C@H](Cc2ccc(C(F)(F)F)cc2)N2CCCCC[C@@H](C2=O)N(C)C(=O)CN(CC)C1=O` [PP0514], the “HRAS/KRAS (ratio of KD value with respect to GDP-bound HRAS wild-type protein to KD value with respect to KRAS)” value in experiment [1] (KD ratio HRAS/KRAS) is “B (a compound having 3 or more and less than 10 is denoted as B)”. Moreover, in experiment [2] (KD ratio NRAS/KRAS), the “NRAS/KRAS (ratio of KD value with respect to GDP-bound NRAS wild-type protein to KD value with respect to KRAS)” value is “B (a compound having 3 or more and less than 10 is denoted as B)”.
As for `CC[C@H](C)[C@@H]1NC(=O)[C@H](CC(C)C)N(C)C(=O)C[C@@H](C(=O)N2CCOCC2)N(C)C(=O)[C@H](C2CCCC2)N(C)C(=O)C2(CCC2)NC(=O)[C@@H]2[C@@H](OCC3CCCC3)CCN2C(=O)[C@H](CCc2cc(F)c(C(F)(F)F)c(F)c2)NC(=O)CN(C)C(=O)[C@H](Cc2ccc(C(F)(F)F)cc2)N2CCCC[C@@H](C2=O)N(C)C(=O)CN(C)C1=O` [PP1073], the “HRAS/KRAS (ratio of KD value with respect to HRAS to KD value with respect to KRAS)” value in experiment [1] (setting [3]) is “B (a compound having 3 or more and less than 10 is denoted as B)”. Besides, the “NRAS/KRAS (ratio of KD value with respect to NRAS to KD value with respect to KRAS)” value in experiment [2] (setting [4]) was “B (a compound having 3 or more and less than 10 is denoted as B)”.
`CCCN1C(=O)CN(C)C(=O)[C@@H]2CCN2C(=O)[C@H]([C@@H](C)CC)NC(=O)[C@H](CC(C)C)N(C)C(=O)C[C@@H](C(=O)N2CCOCC2)N(C)C(=O)[C@H](C2CCCC2)N(C)C(=O)C2(CCCC2)NC(=O)[C@@H]2CCCN2C(=O)[C@H](CCc2ccc(C(F)(F)F)c(Cl)c2)NC(=O)CN(C)C(=O)[C@@H]1Cc1ccc(C(F)(F)F)cc1` [PP0158] ([NMeL]I[Aze][Sar][NPrPhe(4-CF3)][Sar][hPhe(3-Cl-4-CF3)]P[Ac5c][NMeGly(cPent)][NMeD]-Morpholide; lactam N-11): the “HRAS/KRAS (ratio of KD for GDP-bound HRAS wild-type to KD for KRAS)” value in experiment [1] (KD ratio HRAS/KRAS) is “B (a compound having 3 or more and less than 10 is denoted as B)”. Besides, in experiment [2] (KD ratio NRAS/KRAS), the “NRAS/KRAS (ratio of KD for GDP-bound NRAS wild-type to KD for KRAS)” value is “A (a compound having 10 or more and less than 20 is denoted as A)”.
